This note sets out measurements from ChEMBL document CHEMBL2074351, “Characterization of the major metabolites of verapamil as substrates and inhibitors of P-glycoprotein” (J Pharmacol Exp Ther, 2000).

SMILES strings stand for the structures.

The target of one data set is T1, ATP-dependent translocase ABCB1 (Homo sapiens, UniProt P08183). In words: TP_TRANSPORTER: inhibition of Digoxin transepithelial transport (basal to apical) (Digoxin: 5 uM) in Caco-2 cells.
T1 sequence (P08183 whole entry): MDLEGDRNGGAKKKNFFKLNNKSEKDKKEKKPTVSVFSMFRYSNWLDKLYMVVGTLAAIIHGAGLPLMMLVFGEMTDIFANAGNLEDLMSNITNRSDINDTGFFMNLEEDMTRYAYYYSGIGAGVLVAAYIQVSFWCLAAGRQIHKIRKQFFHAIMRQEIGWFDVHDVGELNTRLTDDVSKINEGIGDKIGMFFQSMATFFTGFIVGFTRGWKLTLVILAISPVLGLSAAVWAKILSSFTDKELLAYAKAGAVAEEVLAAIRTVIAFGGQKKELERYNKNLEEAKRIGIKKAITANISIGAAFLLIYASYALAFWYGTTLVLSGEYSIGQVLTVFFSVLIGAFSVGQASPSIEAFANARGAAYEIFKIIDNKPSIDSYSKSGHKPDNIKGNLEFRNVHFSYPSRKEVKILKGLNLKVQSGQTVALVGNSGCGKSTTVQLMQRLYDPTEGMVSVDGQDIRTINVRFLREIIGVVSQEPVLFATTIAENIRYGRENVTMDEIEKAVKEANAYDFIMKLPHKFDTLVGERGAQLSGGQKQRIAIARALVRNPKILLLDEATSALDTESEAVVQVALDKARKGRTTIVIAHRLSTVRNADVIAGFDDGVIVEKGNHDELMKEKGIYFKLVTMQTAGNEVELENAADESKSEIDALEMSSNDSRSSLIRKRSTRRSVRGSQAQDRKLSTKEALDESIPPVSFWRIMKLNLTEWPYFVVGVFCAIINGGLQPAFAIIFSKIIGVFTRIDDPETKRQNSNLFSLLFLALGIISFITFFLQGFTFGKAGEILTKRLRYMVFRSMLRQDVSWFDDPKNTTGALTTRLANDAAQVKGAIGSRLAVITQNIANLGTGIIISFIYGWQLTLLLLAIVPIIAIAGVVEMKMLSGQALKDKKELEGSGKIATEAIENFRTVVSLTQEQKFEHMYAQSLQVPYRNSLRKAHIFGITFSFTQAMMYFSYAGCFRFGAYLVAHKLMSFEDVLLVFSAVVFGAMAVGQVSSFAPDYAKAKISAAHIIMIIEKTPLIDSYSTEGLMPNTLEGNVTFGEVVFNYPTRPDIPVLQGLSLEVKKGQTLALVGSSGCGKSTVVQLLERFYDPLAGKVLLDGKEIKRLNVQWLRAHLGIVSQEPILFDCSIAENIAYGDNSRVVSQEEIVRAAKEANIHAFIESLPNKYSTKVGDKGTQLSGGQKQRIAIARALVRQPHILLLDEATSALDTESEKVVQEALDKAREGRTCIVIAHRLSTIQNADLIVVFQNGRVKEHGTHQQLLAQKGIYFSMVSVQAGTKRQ
Conditions: not given
It counts as functional, cell-based. (Caco-2 monolayers are a common model of the intestinal barrier.)
What is called IC50 is the concentration that inhibits the measured activity by half. Read a high IC50 as weaker potency. For `COc1ccc(CCNCCCC(C#N)(c2ccc(OC)c(OC)c2)C(C)C)cc1OC` (stereo unspecified) [NORVERAPAMIL], the half-maximal inhibitory concentration (IC50) worked out at 0.3 µM.
As to `COc1ccc([C@@](C#N)(CCCN(C)CCc2ccc(OC)c(OC)c2)C(C)C)cc1O`, 1.6 µM corresponded to half-maximal inhibition (IC50).

A further data set concerns the target T1, ATP-dependent translocase ABCB1. In words: TP_TRANSPORTER: transepithelial transport (basal to apical) in MDR1-expressing LLC-PK1 cells. The note with it: pig. It counts as functional, cell-based.
For the molecule `COc1ccc([C@@](C#N)(CCCN)C(C)C)cc1OC`, the Activity result was “substrate [+]”.
Take `CNCCCC(C#N)(c1ccc(OC)c(OC)c1)C(C)C` (stereo unspecified): the Activity result is “substrate [+]”.
In the case of `COc1ccc(CCNCCCC(C#N)(c2ccc(OC)c(OC)c2)C(C)C)cc1OC` (stereo unspecified) [NORVERAPAMIL], the Activity entry was “substrate [+]”.
Still for that read-out and setting: for `COc1ccc(CCN(C)CCCC(C#N)(c2ccc(OC)c(OC)c2)C(C)C)cc1OC` (stereo unspecified) [VERAPAMIL] the value was “substrate [+]”.
